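These data come from cells grown in 96-well plates and exposed to compound for 48 hours at five concentrations. At the GI50, growth is halved.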 Activity calls are given as the source filed them. Rule as the data show it: active = GI50 up to about 1.1 µM and inactive = higher.
Columns and labels:
Test in all cases: NCI anticancer screen, dose series, 48 h
[1] = system: CCRF-CEM
[2] = system: SNB-75
[3] = system: K562
[4] = system: KM12
[5] = system: A549
[6] = system: DU-145
[7] = system: EKVX
[8] = system: NCI/ADR-RES
[9] = system: MCF7
[10] = system: OVCAR-5
[11] = system: SK-MEL-2
[12] = system: SK-MEL-28
[13] = system: SF-268
[14] = system: MDA-N
[15] = system: HCC 2998
[16] = system: RPMI-8226
[17] = system: PC-3
[18] = system: OVCAR-8
[19] = system: OVCAR-4
[20] = system: NCI-H522

Structure (SMILES): NC1CC(=O)c2sc(I)cc21 (stereo not given)
- GI50 [1]: 37.4 µM (inactive)
- GI50 [2]: > 100 µM (inactive)
- GI50 [3]: 74 µM (inactive)
- GI50 [4]: > 100 µM (inactive)
- GI50 [5]: > 100 µM (inactive)
- GI50 [6]: > 100 µM (inactive)
- GI50 [7]: > 100 µM (inactive)
- GI50 [8]: > 100 µM (inactive)
- GI50 [9]: > 100 µM (inactive)
- GI50 [10]: > 100 µM (inactive)
- GI50 [11]: > 100 µM (inactive)
- GI50 [12]: > 100 µM (inactive)
- GI50 [13]: > 100 µM (inactive)
- GI50 [14]: > 100 µM (inactive)
- GI50 [15]: > 100 µM (inactive)
- GI50 [16]: 92.5 µM (inactive)
- GI50 [17]: > 100 µM (inactive)
- GI50 [18]: > 100 µM (inactive)

Structure (SMILES): C[C@H](NC(=O)CNC(=O)CCCCCC(=O)NCC(=O)N[C@@H](C)C(=O)OCc1ccccc1)C(=O)OCc1ccccc1
- GI50 [1]: > 100 µM (inactive)
- GI50 [2]: > 100 µM (inactive)
- GI50 [3]: > 100 µM (inactive)
- GI50 [4]: > 100 µM (inactive)
- GI50 [19]: > 100 µM (inactive)
- GI50 [5]: > 100 µM (inactive)
- GI50 [6]: > 100 µM (inactive)
- GI50 [7]: > 100 µM (inactive)
- GI50 [8]: > 100 µM (inactive)
- GI50 [9]: > 100 µM (inactive)
- GI50 [10]: > 100 µM (inactive)
- GI50 [11]: > 100 µM (inactive)
- GI50 [12]: > 100 µM (inactive)
- GI50 [13]: > 100 µM (inactive)
- GI50 [14]: > 100 µM (inactive)
- GI50 [15]: > 100 µM (inactive)
- GI50 [16]: > 100 µM (inactive)
- GI50 [17]: > 100 µM (inactive)
- GI50 [18]: > 100 µM (inactive)

Structure (SMILES): COC(=O)C[C@](O)(CCCC(C)(C)O)C(=O)O[C@@H]1C(OC)=C[C@]23CCCN2CCc2cc4c(cc2[C@H]13)OCO4 [OMACETAXINE MEPESUCCINATE]
- GI50 [1]: 0.0215 µM (active)
- GI50 [2]: 0.102 µM (active)
- GI50 [3]: 0.0397 µM (active)
- GI50 [4]: 0.142 µM (active)
- GI50 [19]: 0.342 µM (active)
- GI50 [6]: 0.741 µM (active)
- GI50 [7]: 0.133 µM (active)
- GI50 [8]: 3.87 µM (inactive)
- GI50 [9]: 0.015 µM (active)
- GI50 [10]: 0.494 µM (active)
- GI50 [11]: 0.259 µM (active)
- GI50 [12]: 0.111 µM (active)
- GI50 [13]: 0.149 µM (active)
- GI50 [14]: 2.42 µM (inactive)
- GI50 [15]: 0.0583 µM (active)
- GI50 [16]: 0.0388 µM (active)
- GI50 [17]: 3.01 µM (inactive)
- GI50 [18]: 0.146 µM (active)

Structure (SMILES): CN(C)CCN(C)P12(Oc3ccccc3O1)Oc1c(Cl)c(Cl)c(Cl)c(Cl)c1O2
- GI50 [1]: 29 µM (inactive)
- GI50 [2]: 13.7 µM (inactive)
- GI50 [3]: 35.6 µM (inactive)
- GI50 [19]: 33.5 µM (inactive)
- GI50 [5]: 46.9 µM (inactive)
- GI50 [6]: 85.5 µM (inactive)
- GI50 [7]: 99.8 µM (inactive)
- GI50 [8]: 35.8 µM (inactive)
- GI50 [9]: 33.7 µM (inactive)
- GI50 [10]: 46.1 µM (inactive)
- GI50 [12]: > 100 µM (inactive)
- GI50 [13]: 36.1 µM (inactive)
- GI50 [14]: 48.4 µM (inactive)
- GI50 [15]: > 100 µM (inactive)
- GI50 [16]: 29.1 µM (inactive)
- GI50 [17]: 33.7 µM (inactive)
- GI50 [18]: 40.7 µM (inactive)

Structure (SMILES): COC(=O)Nc1nc2cc(NC(=O)c3cccs3)ccc2[nH]1
- GI50 [1]: 31.3 µM (inactive)
- GI50 [2]: 15.7 µM (inactive)
- GI50 [3]: 24.3 µM (inactive)
- GI50 [4]: 21.6 µM (inactive)
- GI50 [19]: 74 µM (inactive)
- GI50 [5]: 46.9 µM (inactive)
- GI50 [6]: 98.9 µM (inactive)
- GI50 [7]: 40.3 µM (inactive)
- GI50 [8]: 17.9 µM (inactive)
- GI50 [9]: 32.1 µM (inactive)
- GI50 [10]: 61.8 µM (inactive)
- GI50 [11]: 24.9 µM (inactive)
- GI50 [12]: 38.5 µM (inactive)
- GI50 [13]: 75.3 µM (inactive)
- GI50 [14]: 10.4 µM (inactive)
- GI50 [16]: 18.8 µM (inactive)
- GI50 [17]: 30.2 µM (inactive)
- GI50 [18]: 68.7 µM (inactive)

Structure (SMILES): O=c1ccn(C2OC(CN(O)CCC3C(O)C(CO)OC3n3ccc(=O)[nH]c3=O)C(O)C2O)c(=O)[nH]1 (stereo not given)
- GI50 [2]: > 100 µM (inactive)
- GI50 [3]: > 100 µM (inactive)
- GI50 [4]: > 100 µM (inactive)
- GI50 [19]: > 100 µM (inactive)
- GI50 [5]: > 100 µM (inactive)
- GI50 [6]: > 100 µM (inactive)
- GI50 [7]: > 100 µM (inactive)
- GI50 [8]: > 100 µM (inactive)
- GI50 [9]: > 100 µM (inactive)
- GI50 [10]: > 100 µM (inactive)
- GI50 [11]: > 100 µM (inactive)
- GI50 [13]: > 100 µM (inactive)
- GI50 [14]: > 100 µM (inactive)
- GI50 [15]: > 100 µM (inactive)
- GI50 [16]: > 100 µM (inactive)
- GI50 [17]: > 100 µM (inactive)
- GI50 [18]: > 100 µM (inactive)

Structure (SMILES): c1csc(-c2nn3c(C45CC6CC(CC(C6)C4)C5)nnc3s2)c1
- GI50 [1]: > 100 µM (inactive)
- GI50 [2]: > 100 µM (inactive)
- GI50 [3]: > 100 µM (inactive)
- GI50 [19]: > 100 µM (inactive)
- GI50 [5]: > 100 µM (inactive)
- GI50 [6]: > 100 µM (inactive)
- GI50 [7]: > 100 µM (inactive)
- GI50 [8]: > 100 µM (inactive)
- GI50 [10]: > 100 µM (inactive)
- GI50 [11]: > 100 µM (inactive)
- GI50 [12]: > 100 µM (inactive)
- GI50 [13]: > 100 µM (inactive)
- GI50 [14]: > 100 µM (inactive)
- GI50 [15]: > 100 µM (inactive)
- GI50 [16]: > 100 µM (inactive)
- GI50 [17]: > 100 µM (inactive)
- GI50 [20]: > 100 µM (inactive)
- GI50 [18]: > 100 µM (inactive)

From ChEMBL document CHEMBL1201862, “PubChem BioAssay data set” (2004)
